According to patent US9534259B2, “DOT1 histone methyltransferases as a target for identifying therapeutic agents for leukemia” (The University of North Carolina at Chapel Hill, priority 2003, dated 2017):
Entries after “also recorded” stand apart in the source; their conditions may differ. Ends that are not written are not given here. Peptide text beside a SMILES is read from it. * marks the point of attachment. Cbz = O=C(OCc1ccccc1)*

Legend:
[1] = test system: CRM1-mediated nuclear export of hDOT1L NESs fused with EGFP; format: cell-based, human; details: 20 nM, eight hours after treatment, U2OS cells, FIG. 10E
Procedure: To further characterize the nuclear export ability of the three NESs identified, it was determined whether the NESs were involved in active nuclear export mediated by the CRM1 (chromosomal region maintenance) pathway. CRM1 was initially identified as a S. pombe protein whose mutation affects higher order chromosome structure (Adachi and Yanagida (1989) J. Cell Biol. 108:1195-1207). Subsequent studies indicate that CRM1 is an export receptor for Leucine-rich nuclear export signals (Fornerod, et al. (1997) Cell 90:1051-1060; Ossareh-Nazari, et al. (1997) Science 278:141-144; Stade, et al. (1997) Cell 90:1041-1050). […] To investigate the effect of LMB treatment on the nuclear export ability of the NESs, U2OS cells were transfected with constructs encoding each of the three NESs fused with EGFP in the presence or absence of 20 nM of LMB. Eight hours after LMB treatment, green fluorescence was observed under a microscope in living cells.

[2] = test system: proteasome (stability of ubiquitinated FLAG-Tat and FLAG-hDOT1L); experiment: In vivo ubiquitination assay in 293T cells with proteasome inhibitor; format: cell-based, human; parameters: dose or concentration left out as unconfirmed; details: HA-Ub co-expressed
Procedure: pcDNA3b-FLAG®-hDOT1L and pcDNA3b-FLAG®-Tat were transfected to 293T cells with or without pHA-Ubiquitin (Ub) by using FUGENE™ 6 transfection reagent (Roche Diagnostics, Indianapolis, Ind.). Twenty-four hours after transfection, MG132 was added at the final concentration of […], and the cells were cultured for […]. Cells were then lysed with lysis buffer (50 mM Tris-HCl, pH 7.5, 0.5 mM EDTA, 1% SDS, and 1 mM DTT), and boiled for 10 minutes before centrifugation at 14,000 rpm for 10 minutes. The supernatant was diluted by 10-fold with NP40 lysis buffer (50 mM Tris-HCl, pH 7.5, 150 mM NaCl, 0.1% NP40, 50 mM NaF, 10% glycerol, 1 mM DTT, and 1 mM PMSF), and incubated with […] of FLAG® (M2) antibody for 4 hours at 4° C. Protein G beads were then added and incubated further for one hour. The beads were washed three times with lysis buffer containing 0.5% of NP40 before eluting the protein with SDS sample buffer for SDS-PAGE analysis.
Protein ubiquitination is the major pathway for rapid protein degradation (Pickart (2001) Annu. Rev. Biochem 70:503-533). Toward this end, we asked whether hDOT1L is subjected to ubiquitination. We transfected 293T cells with a construct encoding FLAG®-hDOT1L with or without co-transfection of a construct encoding HA-tagged ubiquitin. […]

[3] = test system: hDOT1L binding to HeLa mono-nucleosomes; experiment: Gel mobility shift assay (mono-nucleosome binding) with competitor peptide; parameters: species or system human; details: HeLa mono-nucleosomes 1.5 μM
Procedure: Different amount of recombinant hDOT1L proteins were incubated with HeLa mono-nucleosomes (1.5 μM) under the same conditions as those in the histone methyltransferase assay, except that SAM is omitted. Following incubation for 1 hour at 30° C., samples were resolved in a 1.8% agarose gel and visualized under UV by ethidium bromide staining.
We next examined mono-nucleosome binding of hDot1(1-416) and several of its truncation variants by gel mobility shift assays (GSMA). […] Consistent with this, we could detect strong, but apparently non-sequence specific, binding of hDOT1L(1-416) with DNA extracted from mono-nucleosomes. To further probe the nature of hDOT1L-nucleosome interaction, we used a 21-residue highly charged peptide, C-RS10, containing 10 tandem repeats of arginine and serine as a competitor in our nucleosome binding and HMTase assays.

[4] = biological target: T1, hDOT1L(1-416) (Homo sapiens, UniProt Q8TEK3); experiment: Histone methyltransferase assay with peptide competition; format: biochemical; details: 1.5, 15 or 150 μM peptide; oligo-nucleosome substrate; FIG. 6D lanes 1-4
T1 construct: The plasmid expressing the first 416 residues of hDOT1L, pGEX-KG/hDOT1L(1-416); GST (N, cleaved yes); made in house; host or cells: E. coli
T1 sequence (Q8TEK3 1-416): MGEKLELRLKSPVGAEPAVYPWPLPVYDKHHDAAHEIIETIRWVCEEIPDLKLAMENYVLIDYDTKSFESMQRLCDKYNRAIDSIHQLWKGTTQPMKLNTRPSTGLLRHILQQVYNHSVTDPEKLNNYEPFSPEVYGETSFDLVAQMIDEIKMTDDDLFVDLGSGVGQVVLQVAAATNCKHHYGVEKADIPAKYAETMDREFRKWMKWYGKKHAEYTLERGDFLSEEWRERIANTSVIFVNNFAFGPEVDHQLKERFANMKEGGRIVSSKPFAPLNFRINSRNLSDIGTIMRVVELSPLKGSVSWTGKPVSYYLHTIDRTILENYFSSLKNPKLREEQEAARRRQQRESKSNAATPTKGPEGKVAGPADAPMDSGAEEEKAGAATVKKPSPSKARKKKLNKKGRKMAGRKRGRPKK
Procedure: (§1) Histone methyltransferase assay was performed using established methods (Wang, et al. (2001) Science 293:853-857). Oligo-nucleosomes purified from HeLa cells or chicken blood cells were quantified and equal concentrations were used in each assay. Briefly, recombinant hDOT1L proteins (0.75 μM) were incubated with oligo-nucleosomes (1.5 μM) in reactions containing 20 mM Tris-HCl (pH 8.0), 4 mM EDTA, 1 mM PMSF, 0.5 mM DTT, and 0.5 μL ^3H-SAM (15 Ci/mM; NEN™ Life Science Products) for 1 hour at 30° C. For peptide competition, 1.5 μM, 15 μM, or 150 μM of positively charged C-RS10 peptide ([…] SEQ ID NO:20) were added to reactions. Reactions were stopped by addition of 7 μL of 5×SDS loading buffer and proteins were separated in an 18% SDS-PAGE. Following stain and destain of COMMASSIE® Blue, gels were treated with Rapid Autoradiography Enhancer (NEN™ Life Science Products, Boston Mass.) for 40 minutes, dried, and exposed to X-ray films. For quantitation, gel slices were excised and counted with scintillation counting. Two independent experiments were performed at the same time and average ^3H (CPM) values were used in the figures.

[5] = biological target: T2, hDOT1L Δ(376-390) (Homo sapiens, UniProt Q8TEK3, DEL376-390); experiment: as above; format: biochemical; details: 1.5, 15 or 150 μM peptide; oligo-nucleosome substrate; FIG. 6D lanes 5-8
T2 construct: GST (N, cleaved yes); made in house; host or cells: E. coli
T2 sequence (Q8TEK3 with tags, fused parts or gaps DEL376-390): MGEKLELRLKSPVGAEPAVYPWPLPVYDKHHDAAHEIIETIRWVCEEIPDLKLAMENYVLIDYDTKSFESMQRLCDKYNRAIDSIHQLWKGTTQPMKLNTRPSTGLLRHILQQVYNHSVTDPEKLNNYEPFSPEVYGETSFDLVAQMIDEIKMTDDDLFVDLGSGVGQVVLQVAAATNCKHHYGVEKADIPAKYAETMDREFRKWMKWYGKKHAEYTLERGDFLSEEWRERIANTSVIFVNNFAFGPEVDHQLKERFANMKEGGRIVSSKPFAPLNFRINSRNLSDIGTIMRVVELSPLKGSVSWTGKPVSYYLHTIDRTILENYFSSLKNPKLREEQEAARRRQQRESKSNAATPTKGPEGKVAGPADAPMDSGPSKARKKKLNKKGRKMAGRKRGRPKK
Procedure: as §1

CCC(=C/[C@H](C)C/C=C/C(C)=C/[C@@H](C)C(=O)[C@@H](C)[C@H](O)[C@@H](C)C/C(C)=C/C(=O)O)/C=C/[C@@H]1OC(=O)C=C[C@@H]1C [LMB, Leptomycin B]
Effect on nuclear export by NES1, NES2, NES3 fused with EGFP [1]: prevented nuclear export by all the three NESs; also recorded: can be blocked

CC(C)C[C@@H](C=O)NC(=O)[C@H](CC(C)C)NC(=O)[C@H](CC(C)C)NC(=O)OCc1ccccc1 [MG132] (Cbz-Leu-Leu-Leu-aldehyde)
Stabilization of ubiquitinated FLAG-hDOT1L ([2]; FIG. 8A lanes 4 and 5): did not appear to stabilize
Stabilization of ubiquitinated Tat ([2]; FIG. 8A lanes 6 and 7): successfully stabilized ubiquitinated Tat

CRSRSRSRSRSRSRSRSRSRS
Effect of peptide on mono-nucleosome migration in GSMA [3]: prevented mono-nucleosomes from entering the gel well
HMTase activity of hDOT1L(1-416) in presence of competitor peptide [4]: effectively competed
HMTase activity of Δ(376-390) in presence of competitor peptide [5]: effectively competed
